# Measured values reported in ChEMBL document CHEMBL1127628, “A new arylpiperazine antipsychotic with high D2/D3/5-HT1A/alpha 1A-adrenergic affinity and a low potential for extrapyramidal effects” (J Med Chem, 1994).
# Key:
# [1] = molecular target: T1, 5-hydroxytryptamine receptor 1A (Rattus norvegicus, UniProt P19327)
# T1 sequence (P19327 whole entry): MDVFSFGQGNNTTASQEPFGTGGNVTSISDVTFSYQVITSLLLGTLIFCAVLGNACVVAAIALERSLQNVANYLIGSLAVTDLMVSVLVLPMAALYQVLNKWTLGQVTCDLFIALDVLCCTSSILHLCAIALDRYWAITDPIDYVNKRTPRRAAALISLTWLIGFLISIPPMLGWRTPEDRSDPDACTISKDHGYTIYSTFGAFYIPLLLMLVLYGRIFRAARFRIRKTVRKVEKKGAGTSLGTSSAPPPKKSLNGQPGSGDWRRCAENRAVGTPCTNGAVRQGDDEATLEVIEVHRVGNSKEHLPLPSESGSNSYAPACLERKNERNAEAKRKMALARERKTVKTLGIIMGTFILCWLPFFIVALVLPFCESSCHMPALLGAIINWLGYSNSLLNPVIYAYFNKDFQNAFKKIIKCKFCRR
# Description: Binding affinity towards 5-hydroxytryptamine 1A receptor of rat brain synaptosomal preparations
# [2] = molecular target: D(2) dopamine receptor (Rattus norvegicus, UniProt P61169); test: Binding affinity towards dopamine D2 receptors in rat brain synaptosomal preparations; format: tissue-based
# D(2) dopamine receptor, sequence (P61169 whole entry): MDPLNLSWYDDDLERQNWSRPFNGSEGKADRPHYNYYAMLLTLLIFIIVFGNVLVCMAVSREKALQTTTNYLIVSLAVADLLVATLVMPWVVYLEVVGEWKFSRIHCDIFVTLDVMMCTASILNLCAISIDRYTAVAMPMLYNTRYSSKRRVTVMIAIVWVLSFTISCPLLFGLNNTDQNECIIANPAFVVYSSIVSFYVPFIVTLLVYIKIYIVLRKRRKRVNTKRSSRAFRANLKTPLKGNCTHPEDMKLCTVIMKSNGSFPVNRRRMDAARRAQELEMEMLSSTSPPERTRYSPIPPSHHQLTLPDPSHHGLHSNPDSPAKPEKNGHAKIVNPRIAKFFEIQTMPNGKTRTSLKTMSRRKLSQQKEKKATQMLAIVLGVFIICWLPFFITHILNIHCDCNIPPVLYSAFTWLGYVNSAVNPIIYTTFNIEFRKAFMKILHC
# [3] = molecular target: T2, Adrenergic receptor alpha-1 (Rattus norvegicus, UniProt P15823+P23944+P43140); test: Binding affinity towards alpha-1 adrenergic receptors in rat brain synaptosomal preparations; format: tissue-based
# T2 sequence (P15823 whole entry): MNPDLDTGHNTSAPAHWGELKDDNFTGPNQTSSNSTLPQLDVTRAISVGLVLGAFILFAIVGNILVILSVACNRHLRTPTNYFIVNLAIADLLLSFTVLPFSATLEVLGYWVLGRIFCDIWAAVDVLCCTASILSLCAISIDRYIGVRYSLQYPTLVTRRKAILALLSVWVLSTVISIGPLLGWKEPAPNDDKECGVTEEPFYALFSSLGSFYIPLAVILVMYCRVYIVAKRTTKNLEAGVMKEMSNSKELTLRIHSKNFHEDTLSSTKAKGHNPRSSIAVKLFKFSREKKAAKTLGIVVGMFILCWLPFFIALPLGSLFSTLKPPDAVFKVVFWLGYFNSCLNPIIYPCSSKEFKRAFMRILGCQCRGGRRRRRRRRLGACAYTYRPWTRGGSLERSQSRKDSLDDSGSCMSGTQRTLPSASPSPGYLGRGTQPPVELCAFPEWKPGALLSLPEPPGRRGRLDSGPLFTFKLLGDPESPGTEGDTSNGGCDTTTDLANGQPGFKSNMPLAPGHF
# T2 sequence (P23944 whole entry): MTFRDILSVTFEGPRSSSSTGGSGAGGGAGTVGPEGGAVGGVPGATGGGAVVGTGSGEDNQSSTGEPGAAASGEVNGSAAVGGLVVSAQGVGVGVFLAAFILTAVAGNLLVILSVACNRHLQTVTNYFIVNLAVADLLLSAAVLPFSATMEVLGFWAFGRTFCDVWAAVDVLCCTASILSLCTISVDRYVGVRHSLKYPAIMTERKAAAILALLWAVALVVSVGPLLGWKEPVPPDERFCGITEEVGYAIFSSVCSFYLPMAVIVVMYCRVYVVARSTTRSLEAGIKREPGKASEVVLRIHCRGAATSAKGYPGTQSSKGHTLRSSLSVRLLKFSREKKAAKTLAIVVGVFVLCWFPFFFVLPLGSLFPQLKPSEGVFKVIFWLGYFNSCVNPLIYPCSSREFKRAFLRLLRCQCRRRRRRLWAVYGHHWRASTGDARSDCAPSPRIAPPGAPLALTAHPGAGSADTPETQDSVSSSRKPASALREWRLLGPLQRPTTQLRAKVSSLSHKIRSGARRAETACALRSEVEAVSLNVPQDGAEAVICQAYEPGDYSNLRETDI
# T2 sequence (P43140 whole entry): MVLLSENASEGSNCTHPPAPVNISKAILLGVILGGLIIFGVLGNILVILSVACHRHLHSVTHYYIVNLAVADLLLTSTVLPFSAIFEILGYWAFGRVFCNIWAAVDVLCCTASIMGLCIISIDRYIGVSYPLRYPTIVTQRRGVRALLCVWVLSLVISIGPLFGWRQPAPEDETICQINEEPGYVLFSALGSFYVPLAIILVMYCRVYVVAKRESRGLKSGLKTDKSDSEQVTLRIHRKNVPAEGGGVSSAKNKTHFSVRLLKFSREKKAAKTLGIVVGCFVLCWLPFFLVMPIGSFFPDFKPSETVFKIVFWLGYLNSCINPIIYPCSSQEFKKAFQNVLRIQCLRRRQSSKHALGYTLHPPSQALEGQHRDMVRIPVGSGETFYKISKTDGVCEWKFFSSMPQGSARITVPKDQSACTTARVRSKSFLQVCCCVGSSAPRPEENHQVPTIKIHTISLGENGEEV
# [4] = molecular target: T3, Adrenergic receptor alpha-2 (Rattus norvegicus, UniProt P22086+P19328+P22909)
# T3 sequence (P22086 whole entry): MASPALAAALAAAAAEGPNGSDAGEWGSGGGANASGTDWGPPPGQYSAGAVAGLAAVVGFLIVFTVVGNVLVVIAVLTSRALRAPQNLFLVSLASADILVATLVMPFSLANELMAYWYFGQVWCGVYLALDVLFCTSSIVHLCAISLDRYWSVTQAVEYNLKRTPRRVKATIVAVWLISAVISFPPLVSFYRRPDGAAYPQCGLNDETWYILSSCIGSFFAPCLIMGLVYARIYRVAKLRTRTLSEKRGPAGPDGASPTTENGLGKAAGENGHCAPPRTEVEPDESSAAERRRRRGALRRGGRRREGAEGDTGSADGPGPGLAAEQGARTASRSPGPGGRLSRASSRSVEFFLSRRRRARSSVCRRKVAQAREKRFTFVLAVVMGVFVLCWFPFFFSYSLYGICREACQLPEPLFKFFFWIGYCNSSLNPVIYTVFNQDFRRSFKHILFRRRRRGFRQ
# T3 sequence (P19328 whole entry): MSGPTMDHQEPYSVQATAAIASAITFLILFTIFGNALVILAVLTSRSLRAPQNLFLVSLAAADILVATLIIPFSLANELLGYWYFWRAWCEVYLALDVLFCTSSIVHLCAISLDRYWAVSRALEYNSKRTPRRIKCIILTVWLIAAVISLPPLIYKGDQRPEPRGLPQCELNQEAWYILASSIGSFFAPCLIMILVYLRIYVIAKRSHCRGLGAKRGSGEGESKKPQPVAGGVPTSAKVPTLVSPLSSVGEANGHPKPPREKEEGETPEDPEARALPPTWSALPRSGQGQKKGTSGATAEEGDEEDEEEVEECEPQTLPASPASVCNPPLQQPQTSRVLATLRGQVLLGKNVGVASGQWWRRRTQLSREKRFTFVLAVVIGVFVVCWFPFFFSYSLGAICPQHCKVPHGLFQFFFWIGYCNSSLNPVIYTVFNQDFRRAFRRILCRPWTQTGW
# T3 sequence (P22909 whole entry): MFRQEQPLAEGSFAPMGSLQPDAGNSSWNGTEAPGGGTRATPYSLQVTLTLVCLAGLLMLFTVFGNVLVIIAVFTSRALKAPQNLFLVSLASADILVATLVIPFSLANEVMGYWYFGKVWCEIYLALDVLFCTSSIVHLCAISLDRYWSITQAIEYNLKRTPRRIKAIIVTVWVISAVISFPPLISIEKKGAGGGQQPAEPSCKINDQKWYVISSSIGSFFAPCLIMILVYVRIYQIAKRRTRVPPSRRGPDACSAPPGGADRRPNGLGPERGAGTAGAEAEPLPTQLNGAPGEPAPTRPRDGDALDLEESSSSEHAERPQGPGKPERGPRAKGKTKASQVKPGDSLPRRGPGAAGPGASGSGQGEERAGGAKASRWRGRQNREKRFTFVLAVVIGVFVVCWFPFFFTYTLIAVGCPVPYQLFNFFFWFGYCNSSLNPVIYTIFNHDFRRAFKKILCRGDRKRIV
# Description: Binding affinity towards alpha-2 adrenergic receptors in rat brain synaptosomal preparations
# [5] = species on record: Rattus norvegicus; test: The compound was evaluated for the conditioned avoidance response data (CAR) in rat intra peritoneally; format: functional
# [6] = system: Rattus norvegicus; test: The compound is evaluated for induction of catalepsy in rats at a dose of 100 mg/kg after peroral administration; format: functional; conditions: route oral
# [7] = system: Rattus norvegicus; test: The compound was evaluated for the conditioned avoidance response data (CAR) in rat peroral administration; format: functional; conditions: po
# [8] = molecular target: D(1A) dopamine receptor (Homo sapiens, UniProt P21728); test: Binding affinity towards dopamine receptor D1 (human clone)
# D(1A) dopamine receptor, sequence (P21728 whole entry): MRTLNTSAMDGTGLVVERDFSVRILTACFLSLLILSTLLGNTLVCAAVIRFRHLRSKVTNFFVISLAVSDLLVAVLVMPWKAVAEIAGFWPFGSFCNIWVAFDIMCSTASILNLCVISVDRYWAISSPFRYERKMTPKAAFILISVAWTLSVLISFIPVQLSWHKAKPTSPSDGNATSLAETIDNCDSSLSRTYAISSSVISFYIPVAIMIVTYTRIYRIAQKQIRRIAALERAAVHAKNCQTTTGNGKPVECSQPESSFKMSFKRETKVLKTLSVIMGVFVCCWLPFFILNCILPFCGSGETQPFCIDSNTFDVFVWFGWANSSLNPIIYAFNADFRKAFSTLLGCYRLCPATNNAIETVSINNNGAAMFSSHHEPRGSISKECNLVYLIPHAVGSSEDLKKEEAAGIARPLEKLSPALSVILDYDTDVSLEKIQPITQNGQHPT
# [9] = system: Canis familiaris; test: The compound is evaluated for inhibition of apomorphine induced emesis in dogs after peroral administration; format: functional, Canis lupus familiaris
# [10] = molecular target: D(3) dopamine receptor (Rattus norvegicus, UniProt P19020); test: Binding affinity towards baculovirus expressed rat dopamine D3 receptors
# D(3) dopamine receptor, sequence (P19020 whole entry): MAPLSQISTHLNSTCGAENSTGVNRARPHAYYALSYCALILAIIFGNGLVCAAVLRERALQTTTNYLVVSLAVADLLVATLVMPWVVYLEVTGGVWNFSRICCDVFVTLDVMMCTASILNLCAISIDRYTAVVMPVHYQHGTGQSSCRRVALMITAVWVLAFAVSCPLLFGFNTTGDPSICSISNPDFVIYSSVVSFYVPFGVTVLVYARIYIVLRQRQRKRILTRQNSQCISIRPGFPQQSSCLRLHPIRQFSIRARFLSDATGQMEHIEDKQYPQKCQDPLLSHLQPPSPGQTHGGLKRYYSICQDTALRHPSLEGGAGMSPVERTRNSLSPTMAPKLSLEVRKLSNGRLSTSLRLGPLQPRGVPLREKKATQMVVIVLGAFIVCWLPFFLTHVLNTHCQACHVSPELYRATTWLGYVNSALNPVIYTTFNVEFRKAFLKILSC
# [11] = molecular target: Muscarinic acetylcholine receptor; test: Binding affinity towards muscarinic receptors; format: protein assay, Rattus norvegicus
# [12] = molecular target: D(1B) dopamine receptor (Rattus norvegicus, UniProt P25115); test: Binding affinity towards Dopamine receptor D5 (rat clone)
# D(1B) dopamine receptor, sequence (P25115 whole entry): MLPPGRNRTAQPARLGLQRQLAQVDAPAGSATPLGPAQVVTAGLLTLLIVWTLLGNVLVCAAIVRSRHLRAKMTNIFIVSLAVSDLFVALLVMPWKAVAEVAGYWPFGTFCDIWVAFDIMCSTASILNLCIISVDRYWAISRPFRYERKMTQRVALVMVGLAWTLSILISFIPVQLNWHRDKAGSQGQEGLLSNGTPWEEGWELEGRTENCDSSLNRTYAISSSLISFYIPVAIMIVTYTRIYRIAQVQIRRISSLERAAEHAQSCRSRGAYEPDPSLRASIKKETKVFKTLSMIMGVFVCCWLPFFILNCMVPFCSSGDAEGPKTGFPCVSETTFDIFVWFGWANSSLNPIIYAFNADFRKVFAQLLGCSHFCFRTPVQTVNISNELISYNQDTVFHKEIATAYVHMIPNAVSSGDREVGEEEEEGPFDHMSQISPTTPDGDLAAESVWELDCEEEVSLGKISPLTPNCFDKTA
# [13] = system: Mus musculus; test: The compound is evaluated for inhibition of apomorphine induced climbing behavior in mice after peroral administration; format: functional; conditions: po
# [14] = molecular target: Serotonin 2 (5-HT2) receptor (Rattus norvegicus, UniProt P30994+P08909+P14842); test: Binding affinity towards 5-hydroxytryptamine 2 receptor; format: protein assay
# [15] = Partition coefficient (logP); format: physicochemical; conditions: octanol/water
# [16] = molecular target: Sigma non-opioid intracellular receptor 1 (Rattus norvegicus, UniProt Q9R0C9); test: Binding affinity towards sigma receptors
# Sigma non-opioid intracellular receptor 1, sequence (Q9R0C9 whole entry): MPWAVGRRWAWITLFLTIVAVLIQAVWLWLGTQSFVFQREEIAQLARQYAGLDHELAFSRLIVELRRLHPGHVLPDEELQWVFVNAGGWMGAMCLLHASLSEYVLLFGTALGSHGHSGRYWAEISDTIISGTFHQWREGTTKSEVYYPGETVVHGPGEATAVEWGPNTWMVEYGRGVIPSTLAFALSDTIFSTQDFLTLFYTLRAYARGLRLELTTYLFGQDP
# [17] = system: Rattus norvegicus; test: The compound was evaluated for the conditioned avoidance response data (CAR) in rat intravenous administration at 0.66 mg/kg concentration; format: functional
# [18] = system: Rattus norvegicus; test: The compound is evaluated for inhibition of 8-OH-DPAT induced reciprocal forepaw treading in reserpinized rats after intraperitoneal administration; format: functional; conditions: ip
# [19] = molecular target: 5-hydroxytryptamine receptor 1B (Rattus norvegicus, UniProt P28564); test: Binding affinity towards 5-hydroxytryptamine 1B receptor
# 5-hydroxytryptamine receptor 1B, sequence (P28564 whole entry): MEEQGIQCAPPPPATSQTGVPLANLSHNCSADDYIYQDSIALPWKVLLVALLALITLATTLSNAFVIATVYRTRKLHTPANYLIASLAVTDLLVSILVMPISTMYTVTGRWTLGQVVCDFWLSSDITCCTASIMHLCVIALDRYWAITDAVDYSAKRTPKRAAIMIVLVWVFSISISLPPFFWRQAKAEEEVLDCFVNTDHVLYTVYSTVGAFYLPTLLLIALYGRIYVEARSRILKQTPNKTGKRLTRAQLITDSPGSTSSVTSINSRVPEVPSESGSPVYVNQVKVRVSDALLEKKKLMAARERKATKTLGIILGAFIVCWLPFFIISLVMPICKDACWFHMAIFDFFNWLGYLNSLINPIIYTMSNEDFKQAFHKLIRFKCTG
smiles,measurement,setting,value
CC(C)Oc1ccccc1N1CCN(Cc2ccccc2C(=O)N2CCCCC2)CC1,Ki,[1],6.8 nM
same,Ki,[2],37 nM
same,Ki,[3],220 nM
same,Ki,[4],16 nM
CC(C)Oc1ccccc1N1CCN(Cc2ccc(C(=O)N3CCCCC3)cc2)CC1,Ki,[1],560 nM
same,Ki,[2],100 nM
same,Ki,[3],3 nM
CC(C)Oc1ccccc1N1CCN(Cc2ccc(CN3CCCCC3=O)cc2)CC1,Ki,[4],1000 nM
CN1CCN(C2=Nc3cc(Cl)ccc3Nc3ccccc32)CC1 [CLOZAPINE],ED50,[5],4 mg/kg
CC(C)Oc1ccccc1N1CCN(Cc2cccc(C(=O)N3CCCCC3)c2)CC1 [MAZAPERTINE],Catalepsy,[6],30%
same,ED50,[7],13.8 mg/kg
same,Ki,[8],> 5 µM
same,ED50,[9],0.038 mg/kg
same,Ki,[10],1.8 nM
same,Ki,[11],> 5 µM
same,Ki,[12],> 5 µM
same,ED50,[13],0.6 mg/kg
same,Ki,[14],165 nM
same,logP,[15],4
same,Ki,[4],17 nM
same,Ki,[16],> 5 µM
same,ED50,[17],0.23 mg/kg
same,ED50,[18],5.24 mg/kg
same,Ki,[19],2880 nM
